Results from patent publication US8536187B2 (Gilead Sciences, Inc., priority 2008, dated 2013).

Tests used:
[1] = tested on: HCV replicon in human hepatoma Huh-7 cell line; experiment: Anti-HCV replicon assay, EC50 (luciferase luminescence); format: cell-based; conditions: Hepatitis C virus, Huh-7, 72 h
Outline: (§1)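 Huh-7 cells carrying HCV replicon (6000/well) incubated with serially diluted compound, 0.5% DMSO final, 3 days at 37° C, 5% CO2. EC50 from luciferase luminescence after 30 min lysis/substrate at room temperature; CC50 from CellTiter-Glo luminescence after 10 min at room temperature.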

[2] = CC50 assay (CellTiter-Glo) in Huh-7 HCV replicon cells; format: cell-based; conditions: human
Outline: as §1

Compound | EC50 [1] | CC50 at 3 days ([2]; Table 2, 3 days incubation) | CC50 at 3 days ([2]; Table 1, 3 days incubation)
c1ncn(-c2ccc(CNc3nc(C4CC4)c4nc(-c5ccc(OC6CC6)nc5)ccc4n3)cc2)n1 [Example 267, N-(4-(1H-1,2,4-triazol-1-yl)benzyl)-6-(6-cyclopropoxy-pyridin-3-yl)-4-cyclopropyl-pyrido[3,2-d]pyrimidin-2-amine] | 100 to 250 nM | > 10000 nM | –
CCOc1ccc(-c2ccc3nc(N[C@H]4CCN(C(=O)[C@H](NC(=O)OC)C(C)C)C4)nc(NCC(F)(F)F)c3n2)cc1S(N)(=O)=O [Example 266, methyl (R)-1-((S)-3-(6-(4-ethoxy-3-(aminosulfonyl)phenyl)-4-(2,2,2-trifluoroethylamino)pyrido[3,2-d]pyrimidin-2-ylamino)pyrrolidin-1-yl)-3-methyl-1-oxobutan-2-ylcarbamate] | < 100 nM | 1000 to 10000 nM | –
CS(=O)(=O)c1cc(-c2ccc3nc(NCc4ccc(S(N)(=O)=O)cc4)nc(NCC(F)(F)F)c3n2)ccc1F [Example 21, 4-{[6-(4-Fluoro-3-methanesulfonyl-phenyl)-4-(2,2,2-trifluoro-ethylamino)-pyrido[3,2-d]pyrimidin-2-ylamino]-methyl}-benzenesulfonamide] | < 100 nM | – | > 25000 nM
CS(=O)(=O)c1cc(-c2ccc3nc(NCc4ccc(-n5cncn5)cc4)nc(OC4CC4)c3n2)ccc1OC(F)F [Example 192, N-(4-(1H-1,2,4-triazol-1-yl)benzyl)-4-cyclopropoxy-6-(4-(difluoromethoxy)-3-(methylsulfonyl)phenyl)pyrido [3,2-d]pyrimidin-2-amine] | < 100 nM | 1000 to 10000 nM | –
C[C@@H](Nc1nc(OC2CC2)c2nc(-c3ccc(F)cc3)ccc2n1)c1ccc(S(N)(=O)=O)cc1 [Example 13, (R)-4-{1-[6-(4-Fluoro-phenyl)-4-cyclopropoxy-pyrido[3,2-d]pyrimidin-2-ylamino]-ethyl}-benzenesulfonamide] | 100 to 250 nM | – | 10000 to 25000 nM
CS(=O)(=O)c1cc(-c2ccc3nc(NCc4ccc(-n5cncn5)cc4)nc(O[C@@H]4C[C@@H]5C[C@@H]5C4)c3n2)ccc1OC(F)F [Example 195, N-(4-(1H-1,2,4-triazol-1-yl)benzyl)-4-((1S,3r,5R)-bicyclo[3.1.0]hexan-3-yloxy)-6-(4-(difluoromethoxy)-3-(methylsulfonyl)phenyl)pyrido [3,2-d]pyrimidin-2-amine] | < 100 nM | 1000 to 10000 nM | –
CS(=O)(=O)c1cccc(-c2ccc3nc(NCC(O)CO)nc(NCC(F)(F)F)c3n2)c1 (stereo not drawn) [Example 158, 3-(6-(3-(methylsulfonyl)phenyl)-4-(2,2,2-trifluoroethylamino)pyrido[3,2-d]pyrimidin-2-ylamino)propane-1,2-diol] | 250 to 2000 nM | > 10000 nM | –
CS(=O)(=O)c1cccc(-c2ccc3nc(NCc4ccc(-n5cncn5)nc4)nc(NCC(F)(F)F)c3n2)c1 [Example 184, N^2-((6-(1H-1,2,4-triazol-1-yl)pyridin-3-yl)methyl)-6-(3-(methylsulfonyl)phenyl)-N^4-(2,2,2-trifluoroethyl)pyrido [3,2-d]pyrimidine-2,4-diamine] | < 100 nM | 1000 to 10000 nM | –
NS(=O)(=O)c1cc(CNc2nc(NC3(C(F)(F)F)CC3)c3nc(-c4ccc(F)cc4)ccc3n2)ccc1Cl [Example 88, 2-chloro-5-((6-(4-fluorophenyl)-4-(1-(trifluoromethyl)cyclopropyl-amino)pyrido[3,2-d]pyrimidin-2-ylamino)methyl)benzene-sulfonamide] | 100 to 250 nM | > 10000 nM | –
COCCNc1nc(NCC(F)(F)F)c2nc(-c3cccc(S(C)(=O)=O)c3)ccc2n1 [Example 139, N^2-(2-methoxyethyl)-6-(3-(methylsulfonyl)phenyl)-N^4-(2,2,2-trifluoroethyl)pyrido [3,2-d]pyrimidine-2,4-diamine] | < 100 nM | > 10000 nM | –
CCS(=O)(=O)c1cc(-c2ccc3nc(NCc4ccc(S(N)(=O)=O)cc4)nc(NCC(F)(F)F)c3n2)ccc1OC [Example 149, 4-((6-(3-(ethylsulfonyl)-4-methoxyphenyl)-4-(2,2,2-trifluoroethylamino)pyrido[3,2-d]pyrimidin-2-ylamino)methyl) benzenesulfonamide] | < 100 nM | > 10000 nM | –
C[C@@H](Nc1nc(OC2CCC2)c2nc(-c3ccc(OC4CC4)nc3)ccc2n1)c1ccc(S(N)(=O)=O)cc1 [Example 252, 4-((R)-1-(4-cyclobutoxy-6-(6-cyclopropoxypyridin-3-yl)pyrido[3,2-d]pyrimidin-2-ylamino)ethyl)benzene-sulfonamide] | < 100 nM | 1000 to 10000 nM | –
Cc1ccc(-c2ccc3nc(NCc4ccc(-n5cncn5)cc4)nc(NCC(F)(F)F)c3n2)cc1S(C)(=O)=O [Example 179, N^2-(4-(1H-1,2,4-triazol-1-yl)benzyl)-6-(4-methyl-3-(methylsulfonyl)phenyl)-N^4-(2,2,2-trifluoroethyl)pyrido [3,2-d]pyrimidine-2,4-diamine] | < 100 nM | > 10000 nM | –
CCc1cc(S(N)(=O)=O)ccc1CNc1nc(NC2(C(F)(F)F)CC2)c2nc(-c3ccc(F)cc3)ccc2n1 [Example 68, 3-ethyl-4-((6-(4-fluorophenyl)-4-(1-(trifluoromethyl)cyclo-propylamino)pyrido[3,2-d]pyrimidin-2-ylamino)methyl) benzenesulfonamide] | 250 to 2000 nM | 1000 to 10000 nM | –
O=C1NCCN1c1ccc(-c2ccc3nc(NCc4ccc(-n5cncn5)cc4)nc(NC4(C(F)(F)F)CC4)c3n2)cc1 [Example 129, 1-(4-(2-(4-(1H-1,2,4-triazol-1-yl)benzylamino)-4-(1-(trifluoromethyl)cyclopropyl-amino)pyrido[3,2-d]pyrimidin-6-yl)phenyl)imidazolidin-2-one] | < 100 nM | < 1000 nM | –
COc1ccc(-c2ccc3nc(NCc4cccnc4)nc(NCC(F)(F)F)c3n2)cc1S(C)(=O)=O [Example 166, 6-(4-methoxy-3-(methylsulfonyl)phenyl)-N^2-(pyridin-3-ylmethyl)-N^4-(2,2,2-trifluoroethyl)pyrido [3,2-d]pyrimidine-2,4-diamine] | < 100 nM | 1000 to 10000 nM | –
C#Cc1ccc2nc(N[C@H](C)c3ccc(S(N)(=O)=O)cc3)nc(OC3CCC3)c2n1 [Example 307, (R)-4-(1-(4-cyclobutoxy-6-ethynylpyrido[3,2-d]pyrimidin-2-ylamino)ethyl)benzene-sulfonamide] | 250 to 2000 nM | 1000 to 10000 nM | –
CC1(Oc2nc(NCc3ccc(-n4cncn4)cc3)nc3ccc(-c4cccc(S(C)(=O)=O)c4)nc23)CC1 [Example 189, N-(4-(1H-1,2,4-triazol-1-yl)benzyl)-4-(1-methylcyclo-propoxy)-6-(3-(methylsulfonyl)phenyl)pyrido[3,2-d]pyrimidin-2-amine] | < 100 nM | 1000 to 10000 nM | –
Cc1cc(S(N)(=O)=O)ccc1C(C)Nc1nc(NCC(F)(F)F)c2nc(-c3ccc(F)cc3)ccc2n1 (stereo not drawn) [Example 10, 4-{1-[6-(4-Fluoro-phenyl)-4-(2,2,2-trifluoro-ethylamino)-pyrido[3,2-d]pyrimidin-2-ylamino]-ethyl}-3-methyl-benzenesulfonamide] | 100 to 250 nM | – | < 10000 nM
NS(=O)(=O)c1cc(CNc2nc(NC3(C(F)(F)F)CC3)c3nc(-c4ccc(F)cc4)ccc3n2)cc(C(F)(F)F)c1 [Example 26, 3-{[6-(4-fluorophenyl)-4-(1-trifluoromethyl-cyclopropylamino)-pyrido[3,2-d]pyrimidin-2-ylamino]-methyl}-5-trifluoromethyl-benzenesulfonamide] | 100 to 250 nM | > 10000 nM | –
CCOc1nc(NCc2ccc(-n3cncn3)cc2)nc2ccc(-c3cccc(S(C)(=O)=O)c3)nc12 [Example 190, N-(4-(1H-1,2,4-triazol-1-yl)benzyl)-4-ethoxy-6-(3-(methylsulfonyl)phenyl)pyrido [3,2-d]pyrimidin-2-amine] | < 100 nM | > 10000 nM | –
[2H]C([2H])([2H])C([2H])([2H])Oc1ccc(-c2ccc3nc(N[C@H](C)c4ccc(-n5cncn5)cc4)nc(NCC(F)(F)F)c3n2)cn1 [Example 255, N^2-((R)-1-(4-(1H-1,2,4-triazol-1-yl)phenyl)ethyl)-6-(6-pentadeuteroethoxypyridin-3-yl)-N^4-(2,2,2-trifluoroethyl) pyrido[3,2-d]pyrimidine-2,4-diamine] | < 100 nM | 1000 to 10000 nM | –
FC(F)(F)CNc1nc(NCc2ccc(-n3cncn3)cc2)nc2ccc(-c3ccc(OC4CCC4)nc3)nc12 [Example 250, N^2-(4-(1H-1,2,4-triazol-1-yl)benzyl)-6-(6-cyclobutoxy-pyridin-3-yl)-N^4-(2,2,2-trifluoroethyl)pyrido[3,2-d] pyrimidine-2,4-diamine] | < 100 nM | 1000 to 10000 nM | –
Nc1ccc(-c2ccc3nc(NCc4ccc(-n5cncn5)cc4)nc(NC4(C(F)(F)F)CC4)c3n2)cn1 [Example 112, N^2-(4-(1H-1,2,4-triazol-1-yl)benzyl)-6-(6-aminopyridin-3-yl)-N^4-(1-(trifluoromethyl)cyclopropyl)pyrido[3,2-d] pyrimidine-2,4-diamine] | < 100 nM | 1000 to 10000 nM | –
COc1ccc(-c2ccc3nc(NCc4cccc(-n5cncn5)c4)nc(NCC(F)(F)F)c3n2)cc1S(C)(=O)=O [Example 20] | < 100 nM | – | > 25000 nM
CN1CCN(c2ccc(-c3ccc4nc(NCc5cccc(S(C)(=O)=O)c5)nc(NC5(C(F)(F)F)CC5)c4n3)cc2)C1=O [Example 50, 1-(4-(2-(3-(methylsulfonyl)benzylamino)-4-(1-(trifluoromethyl)cyclopropylamino)pyrido[3,2-d]pyrimidin-6-yl)phenyl)-3-methylimidazolidin-2-one] | < 100 nM | 1000 to 10000 nM | –
c1ncn(-c2ccc(CNc3nc(OC4CC4)c4nc(-c5cnc(OC6CC6)nc5)ccc4n3)cc2)n1 [Example 254, N-(4-(1H-1,2,4-triazol-1-yl)benzyl)-4-cyclopropoxy-6-(2-cyclopropoxypyrimidin-5-yl)pyrido[3,2-d]pyrimidin-2-amine] | < 100 nM | > 10000 nM | –
